The results in this text go back to patent publication US10112899B2 (ViiV HEALTHCARE UK LIMITED, priority 2014, dated 2018).

The first test deals with HIV in the HTLV-1 transformed cell line MT-4. Briefly: organism not typed. The note with it: MT4, 96 h, MT-4 cells; luciferase/cell titer glo readout after 96 hours; 10 point dose response. Type of test: cell-based. A general note: Cellular ATP, detected with luciferase, serves as a proxy for viable cell number.
For the molecule `Cc1ccc(-c2c(C)c3c(c(C)c2[C@H](OC(C)(C)C)C(=O)O)CN(C(=O)NCc2ccccc2)C3)cc1` [Example 34, (S)-2-(2-(benzylcarbamoyl)-4,7-dimethyl-6-(p-tolyl)isoindolin-5-yl)-2-(tert-butoxy)acetic acid], the IC50 stood at 0.086 µM. Take `Cc1ccc(-c2c(C)c3c(c(C)c2[C@H](OC(C)(C)C)C(=O)O)CN(C(=O)N2CCCC2)C3)cc1` [Example 35, (S)-2-(tert-butoxy)-2-(4,7-dimethyl-2-(pyrrolidine-1-carbonyl)-6-(p-tolyl)isoindolin-5-yl)acetic acid]: it took 0.012 µM to reach half-maximal inhibition (IC50). Still for that read-out and setting: for `Cc1ccc(-c2c(C)c3c(c(C)c2[C@H](OC(C)(C)C)C(=O)O)CN(CCCc2cccc(F)c2)C3)cc1` [Example 38, (2S)-2-(tert-butoxy)-2-{2-[3-(3-fluorophenyl)propyl]-4,7-dimethyl-6-(4-methylphenyl)-2,3-dihydro-1H-isoindol-5-yl}acetic acid] the value was 1.23 µM; for `Cc1ccc(-c2c(C)c3c(c(C)c2[C@H](OC(C)(C)C)C(=O)O)CN(CCc2ccccc2)C3)cc1` [Example 39, (2S)-2-(tert-butoxy)-2-[4,7-dimethyl-6-(4-methylphenyl)-2-(2-phenylethyl)-2,3-dihydro-1H-isoindol-5-yl]acetic acid], 0.872 µM. Molecule `Cc1ccc(-c2c(C)c3c(c(C)c2[C@H](OC(C)(C)C)C(=O)O)CN(CC2CCCN2C(=O)OC(C)(C)C)C3)cc1` (stereo partly drawn) [Example 40, (2S)-2-(tert-butoxy)-2-[2-({1-[(tert-butoxy)carbonyl]pyrrolidin-2-yl}methyl)-4,7-dimethyl-6-(4-methylphenyl)-2,3-dihydro-1H-isoindol-5-yl]acetic acid] yielded an IC50 of 3.43 µM. As to `Cc1ccc(-c2c(C)c3c(c(C)c2[C@H](OC(C)(C)C)C(=O)O)CN(Cc2cccnc2)C3)cc1` [Example 41, (2S)-2-(tert-butoxy)-2-[4,7-dimethyl-6-(4-methylphenyl)-2-(pyridin-3-ylmethyl)-2,3-dihydro-1H-isoindol-5-yl]acetic acid], the IC50 amounted to 0.05 µM. For `CNC(=O)c1cccc(CN2Cc3c(C)c(-c4ccc(C)cc4)c([C@H](OC(C)(C)C)C(=O)O)c(C)c3C2)c1` [Example 43, (2S)-2-(tert-butoxy)-2-(4,7-dimethyl-2-{[3-(methylcarbamoyl)phenyl]methyl}-6-(4-methylphenyl)-2,3-dihydro-1H-isoindol-5-yl)acetic acid], the IC50 was 0.937 µM.

On to `Cc1ccc(-c2c(C)c3c(c(C)c2[C@H](OC(C)(C)C)C(=O)O)CN(Cc2cccc(C(=O)N4CCCCC4)c2)C3)cc1` [Example 44, (2S)-2-(tert-butoxy)-2-[4,7-dimethyl-6-(4-methylphenyl)-2-{[3-(piperidine-1-carbonyl)phenyl]methyl}-2,3-dihydro-1H-isoindol-5-yl]acetic acid], for which half-maximal inhibition (IC50) was put at 3.35 µM.

As for `Cc1ccc(-c2c(C)c3c(c(C)c2[C@H](OC(C)(C)C)C(=O)O)CN(Cc2cccc(Cl)c2)C3)cc1` [Example 45, (2S)-2-(tert-butoxy)-2-{2-[(3-chlorophenyl)methyl]-4,7-dimethyl-6-(4-methylphenyl)-2,3-dihydro-1H-isoindol-5-yl}acetic acid], half-maximal inhibition (IC50) required 0.043 µM. Same read-out and setting: for `Cc1ccc(-c2c(C)c3c(c(C)c2[C@H](OC(C)(C)C)C(=O)O)CN(Cc2cccc(N4CCOCC4)c2)C3)cc1` [Example 46, (2S)-2-(tert-butoxy)-2-[4,7-dimethyl-6-(4-methylphenyl)-2-{[3-(morpholin-4-yl)phenyl]methyl}-2,3-dihydro-1H-isoindol-5-yl]acetic acid] the value was 4.08 µM; for `Cc1ccc(-c2c(C)c3c(c(C)c2[C@H](OC(C)(C)C)C(=O)O)CN(Cc2cccc(F)c2C)C3)cc1` [Example 47, (2S)-2-(tert-butoxy)-2-{2-[(3-fluoro-2-methylphenyl)methyl]-4,7-dimethyl-6-(4-methylphenyl)-2,3-dihydro-1H-isoindol-5-yl}acetic acid], 0.044 µM; for `COC(=O)N1Cc2c(C)c(-c3ccc(C)cc3)c([C@H](OC(C)(C)C)C(=O)O)c(C)c2C1` [Example 48, (2S)-2-(tert-butoxy)-2-[2-(methoxycarbonyl)-4,7-dimethyl-6-(4-methylphenyl)-2,3-dihydro-1H-isoindol-5-yl]acetic acid], 0.573 µM.

Molecule `Cc1ccc(-c2c(C)c3c(c(C)c2[C@H](OC(C)(C)C)C(=O)O)CN(S(=O)(=O)c2ccc(F)cc2)C3)cc1` [Example 49, (2S)-2-(tert-butoxy)-2-[2-(4-fluorobenzenesulfonyl)-4,7-dimethyl-6-(4-methylphenyl)-2,3-dihydro-1H-isoindol-5-yl]acetic acid] displayed an IC50 of 0.1 µM.

`Cc1ccc(-c2c(C)c3c(c(C)c2[C@H](OC(C)(C)C)C(=O)O)CN(S(=O)(=O)N2CCCCC2)C3)cc1` [Example 50, (2S)-2-(tert-butoxy)-2-[4,7-dimethyl-6-(4-methylphenyl)-2-(piperidine-1-sulfonyl)-2,3-dihydro-1H-isoindol-5-yl]acetic acid] registered a half-maximal inhibitory concentration (IC50) of 0.029 µM.

Regarding `Cc1ccc(-c2c(C)c3c(c(C)c2[C@H](OC(C)(C)C)C(=O)O)CN(S(=O)(=O)NC(C)C)C3)cc1` [Example 51, (2S)-2-(tert-butoxy)-2-[4,7-dimethyl-6-(4-methylphenyl)-2-[(propan-2-yl)sulfamoyl]-2,3-dihydro-1H-isoindol-5-yl]acetic acid], half-maximal inhibition (IC50) required 0.044 µM. Molecule `Cc1ccc(-c2c(C)c3c(c(C)c2[C@H](OC(C)(C)C)C(=O)O)CN(S(=O)(=O)N2CCOCC2)C3)cc1` [Example 52, (2S)-2-(tert-butoxy)-2-[4,7-dimethyl-6-(4-methylphenyl)-2-(morpholine-4-sulfonyl)-2,3-dihydro-1H-isoindol-5-yl]acetic acid] yielded a 50% inhibitory concentration (IC50) of 0.018 µM.

For the molecule `Cc1ccc(-c2c(C)c3c(c(C)c2[C@H](OC(C)(C)C)C(=O)O)CN(Cc2ccc(F)c(F)c2)C3)cc1` [Example 53, (2S)-2-(tert-butoxy)-2-{2-[(3,4-difluorophenyl)methyl]-4,7-dimethyl-6-(4-methylphenyl)-2,3-dihydro-1H-isoindol-5-yl}acetic acid], the IC50 came to 0.051 µM. The same measure, in the same setting: the value for `Cc1ccc(-c2c(C)c3c(c(C)c2[C@H](OC(C)(C)C)C(=O)O)CN(C(=O)NC2CCC(C)CC2)C3)cc1` (stereo partly drawn) [Example 54, (2S)-2-(tert-butoxy)-2-[4,7-dimethyl-6-(4-methylphenyl)-2-{[(1r,4r)-4-methylcyclohexyl]carbamoyl}-2,3-dihydro-1H-isoindol-5-yl]acetic acid] was 0.288 µM; that for `Cc1ccc(-c2c(C)c3c(c(C)c2[C@H](OC(C)(C)C)C(=O)O)CN(C(=O)N2CCOCC2)C3)cc1` [Example 57, (2S)-2-(tert-butoxy)-2-[4,7-dimethyl-6-(4-methylphenyl)-2-(morpholine-4-carbonyl)-2,3-dihydro-1H-isoindol-5-yl]acetic acid] was 0.044 µM. Same read-out and setting: for `Cc1ccc(-c2c(C)c3c(c(C)c2[C@H](OC(C)(C)C)C(=O)O)CN(C(=O)NCC2CCCCC2)C3)cc1` [Example 58, (2S)-2-(tert-butoxy)-2-{2-[(cyclohexylmethyl)carbamoyl]-4,7-dimethyl-6-(4-methylphenyl)-2,3-dihydro-1H-isoindol-5-yl}acetic acid] the value was 0.35 µM; for `Cc1ccc(-c2c(C)c3c(c(C)c2[C@H](OC(C)(C)C)C(=O)O)CN(C(=O)N(C)C)C3)cc1` [Example 59, (2S)-2-(tert-butoxy)-2-[2-(dimethylcarbamoyl)-4,7-dimethyl-6-(4-methylphenyl)-2,3-dihydro-1H-isoindol-5-yl]acetic acid], 0.279 µM; for `Cc1ccc(-c2c(C)c3c(c(C)c2[C@H](OC(C)(C)C)C(=O)O)CN(C(=O)N2CCCCCC2)C3)cc1` [Example 60, (2S)-2-[2-(azepane-1-carbonyl)-4,7-dimethyl-6-(4-methylphenyl)-2,3-dihydro-1H-isoindol-5-yl]-2-(tert-butoxy)acetic acid], 0.014 µM. Same read-out and setting: for `Cc1ccc(-c2c(C)c3c(c(C)c2[C@H](OC(C)(C)C)C(=O)O)CN(C(=O)N2CCC2)C3)cc1` [Example 61, (2S)-2-[2-(azetidine-1-carbonyl)-4,7-dimethyl-6-(4-methylphenyl)-2,3-dihydro-1H-isoindol-5-yl]-2-(tert-butoxy)acetic acid] the value was 0.038 µM; for `COCCN(C)C(=O)N1Cc2c(C)c(-c3ccc(C)cc3)c([C@H](OC(C)(C)C)C(=O)O)c(C)c2C1` [Example 62, (2S)-2-(tert-butoxy)-2-{2-[(2-methoxyethyl)(methyl)carbamoyl]-4,7-dimethyl-6-(4-methylphenyl)-2,3-dihydro-1H-isoindol-5-yl}acetic acid], 0.044 µM; for `Cc1ccc(-c2c(C)c3c(c(C)c2[C@H](OC(C)(C)C)C(=O)O)CN(C(=O)NC(C)(C)C)C3)cc1` [Example 63], 0.015 µM. Consider `Cc1ccc(-c2c(C)c3c(c(C)c2[C@H](OC(C)(C)C)C(=O)O)CN(C(=O)N2CCS(=O)(=O)CC2)C3)cc1` [Example 64, (2S)-2-(tert-butoxy)-2-[2-(1,1-dioxo-1λ^6,4-thiomorpholine-4-carbonyl)-4,7-dimethyl-6-(4-methylphenyl)-2,3-dihydro-1H-isoindol-5-yl]acetic acid], for which half-maximal inhibition (IC50) required 0.106 µM. On the same count and under the same terms, the value for `Cc1ccc(-c2c(C)c3c(c(C)c2[C@H](OC(C)(C)C)C(=O)O)CN(C(=O)N2CCCCCCC2)C3)cc1` [Example 65, (2S)-2-[2-(azocane-1-carbonyl)-4,7-dimethyl-6-(4-methylphenyl)-2,3-dihydro-1H-isoindol-5-yl]-2-(tert-butoxy)acetic acid] was 0.01 µM; that for `Cc1ccc(-c2c(C)c3c(c(C)c2[C@H](OC(C)(C)C)C(=O)O)CN(C(=O)N2CCCC(F)(F)C2)C3)cc1` [Example 66, (2S)-2-(tert-butoxy)-2-[2-(3,3-difluoropiperidine-1-carbonyl)-4,7-dimethyl-6-(4-methylphenyl)-2,3-dihydro-1H-isoindol-5-yl]acetic acid] was 0.006 µM.

The test is the same for the next values; noted with them: MT-4 cells; luciferase/cell titer glo readout after 96 hours; 10 point dose response.
In turn, `Cc1ccc(-c2c(C)c3c(c(C)c2[C@H](OC(C)(C)C)C(=O)O)CN([C@@H]2CCC[C@@H](C)C2)C3)cc1` [Example 37, (2S)-2-(tert-butoxy)-2-{4,7-dimethyl-2-[(1R,3R)-3-methylcyclohexyl]-6-(4-methylphenyl)-2,3-dihydro-1H-isoindol-5-yl}acetic acid] gave an IC50 of 0.723 µM.

As usually defined, the IC50 is the point on the concentration scale where inhibition reaches its midpoint.
